Several values for one entry are separate records, joined by “and”; a condition that tells them apart may be missing. Identical values can stand only once.
Assay: xn = mol fraction of the nth substance listed

CC(C)[C@H](NC(=O)[C@H](C)N)C(=O)O + O
viscosity [mPa·s], 101 kPa
Settings | x1 = 3.62e-05 | x1 = 7.46e-05 | x1 = 0.000109 | x1 = 0.000142 | x1 = 0.0001835 | x1 = 0.0002124 | x1 = 0.0002514 | x1 = 0.0002793 | x1 = 0.0003251 | x1 = 0.0003549
305.15 K | 0.7756 | 0.7779 | 0.7783 | 0.7805 | 0.7822 | 0.7866 | 0.7955 | 0.8038 | 0.8095 | 0.8143
310.15 K | 0.7078 | 0.7083 | 0.7121 | 0.7125 | 0.7162 | 0.7192 | 0.7239 | 0.7284 | 0.7327 | 0.7351
315.15 K | 0.647 | 0.6501 | 0.6523 | 0.6554 | 0.6591 | 0.6601 | 0.6623 | 0.6675 | 0.6689 | 0.6701

CC(O)CN(CC(C)O)CC(C)O (stereo not drawn) + O
viscosity [mPa·s], 101 kPa
Settings | 303.15 K | 313.15 K | 318.15 K
x1 = 0.005 | – | – | 0.7315
x1 = 0.03 | 2.395 | 1.775 | –

CN1CCNCC1 + O
Settings | viscosity [mPa·s]
298.15 K, 101 kPa, x1 = 0.1039 | 10.75

NCc1ccccc1 + O
viscosity [mPa·s]
Settings | 293.15 K | 303.15 K | 313.15 K | 323.15 K
100 kPa, x1 = 0.1 | – | 2.231 | 1.725 | 1.385
100 kPa, x1 = 0.2 | – | 3.098 | 2.324 | 1.793
100 kPa, x1 = 0.3 | – | 3.387 | 2.512 | 1.956
100 kPa, x1 = 0.4 | – | 3.323 | 2.51 | 1.93
100 kPa, x1 = 0.5 | – | 3.1 | 2.353 | 1.831
100 kPa, x1 = 0.6 | – | 2.669 | 2.064 | 1.648
100 kPa, x1 = 0.7 | – | 2.308 | 1.823 | 1.469
100 kPa, x1 = 0.8 | – | 1.957 | 1.591 | 1.309
100 kPa, x1 = 0.9 | – | 1.681 | 1.396 | 1.182
101 kPa, x1 = 0.1003 | 3.23 | 2.28 | 1.7 | 1.38
101 kPa, x1 = 0.2001 | 4.4 | 3.07 | 2.25 | 1.78
101 kPa, x1 = 0.3 | 4.8 | 3.37 | 2.48 | 1.93
101 kPa, x1 = 0.3997 | 4.63 | 3.3 | 2.46 | 1.91
101 kPa, x1 = 0.5002 | 4.16 | 3.05 | 2.28 | 1.79
101 kPa, x1 = 0.6 | 3.57 | 2.67 | 2.03 | 1.63
101 kPa, x1 = 0.7 | 2.95 | 2.28 | 1.78 | 1.47
101 kPa, x1 = 0.7999 | 2.48 | 1.94 | 1.55 | 1.3
101 kPa, x1 = 0.9 | 2.1 | 1.68 | 1.36 | 1.15

O=S(=O)([O-])[O-].[Co+2] + O
viscosity, 101.33 kPa
Settings | x1 = 0.000905 | x1 = 0.002718 | x1 = 0.00453 | x1 = 0.006344 | x1 = 0.008159 | x1 = 0.04354 | x1 = 0.05633
298.15 K | – | – | – | – | – | 3.182 mPa·s | –
308.15 K | 0.7454 mPa·s | 0.799 mPa·s | 0.8405 mPa·s | 0.897 mPa·s | 0.949 mPa·s | – | –
313.15 K | 0.6751 mPa·s | 0.7255 mPa·s | 0.7615 mPa·s | 0.814 mPa·s | 0.8555 mPa·s | – | –
323.15 K | 0.5699 mPa·s | 0.6065 mPa·s | 0.642 mPa·s | 0.689 mPa·s | 0.739 mPa·s | – | 3.091 mPa·s and 3.091 mPa·s

CCCCCCCCCCCCCCCCCC + c1ccccc1
101 kPa, x2 = 0.5
Settings | viscosity [mPa·s]
298 K | 2.123
318 K | 1.501

O=CN1CCOCC1 + c1ccccc1
298.15 K, 101.3 kPa
Settings | viscosity [mPa·s]
x2 = 0.03787 | 6.858
x2 = 0.07912 | 6.137
x2 = 0.1309 | 5.329
x2 = 0.22 | 4.199
x2 = 0.3483 | 2.992
x2 = 0.4314 | 2.381
x2 = 0.5526 | 1.734
x2 = 0.6351 | 1.413
x2 = 0.7176 | 1.157
x2 = 0.7536 | 1.058
x2 = 0.83 | 0.88
x2 = 0.894 | 0.767
x2 = 0.9506 | 0.671

S=C=S + c1ccccc1
298.15 K, 101 kPa
Settings | viscosity [mPa·s]
x2 = 0.08675 | 0.376
x2 = 0.3427 | 0.446
x2 = 0.7541 | 0.544

O=C1c2ccccc2C(=O)N1c1ccccc1 + c1ccncc1
Settings | viscosity [mPa·s]
298.15 K, 101 kPa, x1 = 0.0129 | 0.9606
